Data published in ChEMBL document CHEMBL3745715, “Sulfonamide inhibition studies of the α-carbonic anhydrase from the gammaproteobacterium Thiomicrospira crunogena XCL-2, TcruCA” (Bioorg Med Chem Lett, 2016).
pKi: −log10 of the molar value. Each block holds one compound with its values, some of them ahead of it.

Assays:
Carbonate dehydratase = biological target: T1, Carbonate dehydratase (Sulfurihydrogenibium sp. (strain YO3AOP1), UniProt B2V8E3)
T1 sequence (B2V8E3 whole entry): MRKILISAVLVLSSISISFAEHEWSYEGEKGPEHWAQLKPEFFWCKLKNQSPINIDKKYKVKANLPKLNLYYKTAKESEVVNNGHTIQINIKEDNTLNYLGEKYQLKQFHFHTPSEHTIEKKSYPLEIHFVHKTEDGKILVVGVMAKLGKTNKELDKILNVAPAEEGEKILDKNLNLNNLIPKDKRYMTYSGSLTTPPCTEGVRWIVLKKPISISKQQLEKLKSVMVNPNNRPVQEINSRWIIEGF
Description: Inhibition of recombinant Sulfurihydrogenibium yellowstonense YO3AOP1 carbonic anhydrase by stopped flow CO2 hydrase assay

[1] = biological target: Carbonic anhydrase, alpha family (Thiomicrospira crunogena, UniProt Q31FD6)
Chain of Carbonic anhydrase, alpha family (Q31FD6 whole entry): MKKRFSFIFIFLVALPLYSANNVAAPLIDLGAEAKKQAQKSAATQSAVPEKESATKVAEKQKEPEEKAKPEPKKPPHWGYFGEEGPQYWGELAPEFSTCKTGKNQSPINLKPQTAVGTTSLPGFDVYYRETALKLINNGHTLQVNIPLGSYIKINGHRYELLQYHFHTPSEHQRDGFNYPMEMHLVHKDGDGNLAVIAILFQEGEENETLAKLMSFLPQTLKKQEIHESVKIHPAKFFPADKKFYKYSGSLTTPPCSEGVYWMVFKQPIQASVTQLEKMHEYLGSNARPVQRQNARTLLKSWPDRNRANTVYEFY
Description: Inhibition of recombinant Thiomicrospira crunogena XCL-2 carbonic anhydrase by stopped flow CO2 hydrase assay

SMILES: NCc1ccc(S(N)(=O)=O)cc1 [MAFENIDE]
- pKi (Carbonate dehydratase): 6.46
- pKi [1]: 6.69

SMILES: NNc1ccc(S(N)(=O)=O)cc1
- pKi (Carbonate dehydratase): 6.10
- pKi [1]: 7.07

SMILES: Cc1ccc(S(N)(=O)=O)cc1 [P-TOLUENESULFONAMIDE]
- pKi (Carbonate dehydratase): 6.07
- pKi [1]: 6.61

SMILES: NS(=O)(=O)c1nnc(NS(=O)(=O)c2ccccc2)s1 [BENZOLAMIDE]
- pKi [1]: 8.57

SMILES: Nc1ccc(S(=O)(=O)NCCc2ccc(S(N)(=O)=O)cc2)cc1
- pKi (Carbonate dehydratase): 8.01
- pKi [1]: 6.40

SMILES: NS(=O)(=O)c1nnc(-c2ccccc2Cl)s1
- pKi (Carbonate dehydratase): 7.15
- pKi [1]: 8.60

SMILES: NS(=O)(=O)c1ccc(CCO)cc1
- pKi (Carbonate dehydratase): 6.79
- pKi [1]: 7.50

SMILES: NCCc1ccc(S(N)(=O)=O)cc1
- pKi [1]: 6.31

- pKi (Carbonate dehydratase): 8.18
- pKi [1]: 6.11
SMILES: CC1(C)O[C@@H]2[C@@H](CO[C@@]3(COS(N)(=O)=O)OC(C)(C)O[C@@H]23)O1 [TOPIRAMATE]

SMILES: Nc1cc(Cl)c(S(N)(=O)=O)cc1S(N)(=O)=O
- pKi [1]: 7.26

SMILES: Nc1ccc(S(N)(=O)=O)cc1I
- pKi (Carbonate dehydratase): 7.35

- pKi (Carbonate dehydratase): 8.16
- pKi [1]: 6.01
SMILES: Cc1ccc(-c2cc(C(F)(F)F)nn2-c2ccc(S(N)(=O)=O)cc2)cc1 [CELECOXIB]

SMILES: NNc1ccccc1S(N)(=O)=O
- pKi (Carbonate dehydratase): 6.16
- pKi [1]: 7.15

SMILES: O=C1NS(=O)(=O)c2ccccc21 [SACCHARIN]
- pKi (Carbonate dehydratase): 6.06
- pKi [1]: 6.03

SMILES: Nc1ccc(S(N)(=O)=O)cc1 [SULFANILAMIDE]
- pKi (Carbonate dehydratase): 6.19
- pKi [1]: 6.20

SMILES: Nc1ccc(S(=O)(=O)NCc2ccc(S(N)(=O)=O)cc2)cc1
- pKi (Carbonate dehydratase): 8.11
- pKi [1]: 6.34

SMILES: Nc1nnc(S(N)(=O)=O)s1
- pKi (Carbonate dehydratase): 6.86
- pKi [1]: 7.55

SMILES: Cn1nc(S(N)(=O)=O)sc1=N
- pKi (Carbonate dehydratase): 6.36
- pKi [1]: 8.32

SMILES: Nc1ccc(S(N)(=O)=O)cc1Br
- pKi (Carbonate dehydratase): 7.12
- pKi [1]: 6.26

- pKi [1]: 7.17
SMILES: Nc1cc(C(F)(F)F)c(S(N)(=O)=O)cc1S(N)(=O)=O [2,4-DISULFAMYLTRIFLUOROMETHYLANILINE]

SMILES: NS(=O)(=O)c1ccc(CO)cc1
- pKi (Carbonate dehydratase): 6.31
- pKi [1]: 7.67

SMILES: Nc1ccc(S(N)(=O)=O)cc1F
- pKi (Carbonate dehydratase): 7.17
- pKi [1]: 7.09

SMILES: NS(=O)(=O)c1nc2ccc(O)cc2s1
- pKi [1]: 7.39

SMILES: NS(=O)(=O)c1ccc(C(=O)O)cc1 [CARZENIDE]
- pKi (Carbonate dehydratase): 7.14
- pKi [1]: 7.07

SMILES: Nc1ccc(S(N)(=O)=O)cc1Cl
- pKi (Carbonate dehydratase): 7.39
- pKi [1]: 7.10

SMILES: CCOc1ccc2nc(S(N)(=O)=O)sc2c1 [ETHOXZOLAMIDE]
- pKi [1]: 8.39

SMILES: Nc1nccc(Nc2ccc(S(N)(=O)=O)cc2)n1
- pKi (Carbonate dehydratase): 8.19
- pKi [1]: 7.03

SMILES: CCN[C@H]1CN(CCCOC)S(=O)(=O)c2sc(S(N)(=O)=O)cc21 [BRINZOLAMIDE]
- pKi (Carbonate dehydratase): 7.91
- pKi [1]: 8.38

SMILES: Nc1ccc(S(=O)(=O)Nc2nnc(S(N)(=O)=O)s2)cc1
- pKi (Carbonate dehydratase): 8.26
- pKi [1]: 8.25
